Assays:
Guinea pigs = assay: Study 003 skin sensitization: adjuvant and patch test; type: in vivo, guinea pig; conditions: daily applications for 3 days, SNV 7 mg/animal (1000X)
Experimental: Toxicology. We performed toxicology studies for SNV that consisted of acute subcutaneous, intravenous and oral toxicity in rats, acute dermal toxicity in rabbits, skin sensitization using adjuvant and patch test in guinea pigs, and single and repeated (for 13 weeks) dose toxicity studies in rats. The latter was a 90-days repeated dose toxicity study, consisting of SNV once a day at three different doses to the penis and vagina of male and female rats, respectively. The compound was tested for the treatment of erectile dysfunction. The active dose (7 µg SNV) was chosen as the lowest dose for the study. The highest dosage group in the repeated dose toxicity study received 3,500 µg ([Gozes et al., 1994]). For study 001 (parts 1 through 3), the 1× dose consisted of 0.5 mg SNV dissolved in 7.1 ml vehicle (3.55 ml 10% Sefsol [glycerin monocaprylate] + 3.55 ml isopropanol) and 100µl/animal were administered; the 1000X dose consisted of 91 mg SNV dissolved in 1.3 ml vehicle (0.65 ml 10% Sefsol +0.65 ml isopropanol) and 100µl/animal were administered. For studies 002 through 004, the indicated doses of SNV (Table 1) were dissolved in 0.25 ml 10% Sefsol +0.25 ml 40% isopropanol (vehicle). The methodology for each of the toxicology studies is detailed in Table 1.

[1] = matrix not given, ref Gozes et al., 1994, 1996; cited from earlier work
Text: VIP derivatives and conjugates were designed to include a lipophilic moiety or a shortened VIP chain ([Gozes and Fridkin, 1992]; [Gozes et al., 1994]; [Gozes et al., 1995]; [Gozes et al., 1996]; [Gozes et al., 1999]). Stearyl-norleucine-VIP (Stearyl-Nle^17VIP, SNV) is a lipophilic compound consisting of a VIP molecule with an N-terminal attachment of stearic acid to increase cell and tissue bioavailability and an exchange of the oxidation-vulnerable methionine at position 17 with the stable norleucine.

[2] = system: Primary murine macrophages/preosteoclasts; assay: MTT viability assay; type: cell-based, mouse; conditions: 10^-6 M, 20 ng/ml M-CSF, 1, 3 and 5 days of treatment, N=5
Experimental: MTT assay. For proliferation assay, macrophages were plated (4000 cells/well) into 96-well plate with standard medium supplemented with 20 ng of M-CSF. Cells were treated as indicated with either TiP, SNV, VIP (10^−6 M) or vehicle at first day of incubation. Cells viability was determined using dimethylthiazol-diphenyl-tetrazolium-bromide (MTT) after 1, 3 or 5 days. MTT was added to a final concentration of 5 mg/ml and incubated for 4 h at 37°C. After complete solubilization of the die in DMSO, plates were read at 570 nm in a colorimetric plate reader.
FIGURE 4 VIP and SNV alleviate the osteoclastogenic effect of TiP-induced inflammation. (A) Primary BMDM were exposed to TiP and RNA was collected after 24 h. mRNA expression are presented as Mean±SD fold change versus Control. * p<0.05 vs. Control. (B-D) Primary murine preosteoclasts were cultured in 20 ng/ml M-CSF and 50 ng/ml RANKL for 48 h. Conditioned medium from macrophages (Control) and macrophages exposed to Ti particles (Ti, as in A) was then added together with 10^-6M of VIP or SNV (or saline) for 48 h before TRAP staining. Data are Mean±SD for osteoclast % surface area (B) and number per well (C). (D) Representative images all acquired at a 4x original magnification. The scale bar for all images is in the upper left panel. n=8, #p<0.05 vs. Control; *p<0.05 vs. Ti, ANOVA. […]

| Compound | Mortality (Guinea pigs; adjuvant and patch test) | Skin reactions (Guinea pigs; intradermal Freund's complete adjuvant and patch application, 3 males + 3 females per group) | Half-life [1] [s] | Viability of the cells (MTT, optical density) [2] |
| --- | --- | --- | --- | --- |
| O=[N+]([O-])c1ccc(Cl)c([N+](=O)[O-])c1 [1%-chloro-2,4-dinitrobenzene, reference compound] | None | severe erythema, edema and necrosis |  |  |
| CC[C@H](C)[C@H](NC(=O)[C@H](CO)NC(=O)[C@H](CC(N)=O)NC(=O)[C@H](CC(C)C)NC(=O)[C@H](Cc1ccc(O)cc1)NC(=O)[C@H](CCCCN)NC(=O)[C@H](CCCCN)NC(=O)[C@@H](NC(=O)[C@H](C)NC(=O)[C@H](CCSC)NC(=O)[C@H](CCC(N)=O)NC(=O)[C@H](CCCCN)NC(=O)[C@H](CCCN=C(N)N)NC(=O)[C@H](CC(C)C)NC(=O)[C@H](CCCN=C(N)N)NC(=O)[C@@H](NC(=O)[C@H](Cc1ccc(O)cc1)NC(=O)[C@H](CC(N)=O)NC(=O)[C@H](CC(=O)O)NC(=O)[C@@H](NC(=O)[C@H](Cc1ccccc1)NC(=O)[C@@H](NC(=O)[C@H](C)NC(=O)[C@H](CC(=O)O)NC(=O)[C@H](CO)NC(=O)[C@@H](N)Cc1c[nH]cn1)C(C)C)[C@@H](C)O)[C@@H](C)O)C(C)C)C(=O)N[C@@H](CC(C)C)C(=O)N[C@@H](CC(N)=O)C(N)=O [VIP, Vasoactive intestinal peptide] |  |  | ~30 | neither VIP nor SNV affected the viability |
